{"source": "patent US20050118658A1", "about": "“Use of ERRalpha phosphorylation status as a breast cancer biomarker” (priority 2003, published 2005)", "molecules": {"B1": {"name": "Human MAPK1 containing an N-terminal GST tag, activated with MEK1 (protein)", "chain": "MAAAAAQGGGGGEPRRTEGVGPGVPGEVEMVKGQPFDVGPRYTQLQYIGEGAYGMVSSAYDHVRKTRVAIKKISPFEHQTYCQRTLREIQILLRFRHENVIGIRDILRASTLEAMRDVYIVQDLMETDLYKLLKSQQLSNDHICYFLYQILRGLKYIHSANVLHRDLKPSNLLINTTCDLKICDFGLARIADPEHDHTGFLTEYVATRWYRAPEIMLNSKGYTKSIDIWSVGCILAEMLSNRPIFPGKHYLDQLNHILGILGSPSQEDLNCIINMKARNYLQSLPSKTKVAWAKLFPKSDSKALDLLDRMLTFNPNKRITVEEALAHPYLEQYYDPTDEPVAEEPFTFAMELDDLPKERLKELIFQETARFQPGVLEAP"}, "B2": {"name": "Human Akt1 containing an N-terminal 6×His tag, lacking amino acids 1-117 (Pleckstrin Homology domain), serine 473 mutated to aspartic acid (protein)", "chain": "HHHHHHMDFRSGSPSDNSGAEEMEVSLAKPKHRVTMNEFEYLKLLGKGTFGKVILVKEKATGRYYAMKILKKEVIVAKDEVAHTLTENRVLQNSRHPFLTALKYSFQTHDRLCFVMEYANGGELFFHLSRERVFSEDRARFYGAEIVSALDYLHSEKNVVYRDLKLENLMLDKDGHIKITDFGLCKEGIKDGATMKTFCGTPEYLAPEVLEDNDYGRAVDWWGLGVVMYEMMCGRLPFYNQDHEKLFELILMEEIRFPRTLGPEAKSLLSGLLKKDPKQRLGGGSEDAKEIMQHRFFAGIVWQHVYEKKLSPPFKPQVTSETDTRYFDEEFTAQMITITPPDQDDSMECVDSERRPHFPQFDYSASGTA"}, "B3": {"name": "Human Akt2 containing an N-terminal 6×His tag, lacking amino acids 1-117 (Pleckstrin Homology domain), serine 474 mutated to aspartic acid (protein)", "chain": "HHHHHHDPMDYKCGSPSDSSTTEEMEVAVSKARAKVTMNDFDYLKLLGKGTFGKVILVREKATGRYYAMKILRKEVIIAKDEVAHTVTESRVLQNTRHPFLTALKYAFQTHDRLCFVMEYANGGELFFHLSRERVFTEERARFYGAEIVSALEYLHSRDVVYRDIKLENLMLDKDGHIKITDFGLCKEGISDGATMKTFCGTPEYLAPEVLEDNDYGRAVDWWGLGVVMYEMMCGRLPFYNQDHERLFELILMEEIRFPRTLSPEAKSLLAGLLKKDPKQRLGGGPSDAKEVMEHRFFLSINWQDVVQKKLLPPFKPQVTSEVDTRYFDDEFTAQSITITPPDRYDSLGLLELDQRTHFPQFDYSASIRE"}}, "key": {"[1]": {"system": "phosphorylated Akt (p-Akt)", "assay": "Immunoblot analysis of phosphorylated versus total Akt in BT-474 cells", "type": "cell-based, human", "conditions": "48 h, 20 μg/ml trastuzumab, 1 μM gefitinib, 20 μM U0126 or 20 μM LY294002", "protocol": "(§1) BT-474 cells were co-transfected in parallel with the ERE(5x)-regulated and TATA dual-luciferase reporter gene sets along with the indicated expression plasmids. […] In panel (B), the cells were incubated for 48 h in estrogen-free medium supplemented with dimethyl sulfoxide as the drug vehicle control, 20 μM U0126 (MEK inhibitor), or 20 μM LY294002 (PI3K inhibitor) as indicated. After incubation for 48 h, the cells were harvested for dual-luciferase assays. Data were analyzed as described in the legend to FIG. 2. (C) Immunoblot analysis of protein extracts (20 μg per sample) prepared from BT-474 cells treated as in panels A and B above for luciferase activity. The membrane was probed with antibodies that react specifically with ERRα. Reactive proteins were visualized by enhanced chemiluminescence and autoradiography. (D) Immunoblot analysis as in panel C above, only the membrane was probed with antibodies that react specifically with phosphorylated Akt (p-Akt), total Akt, phosphorylated MAPK (p-MAPK) or total MAPK.\n(§2) Proteins were extracted in Cell Lysis Buffer (Cell Signaling Technology, Beverly, Mass.) supplemented with Protease Inhibitor Cocktail Set III and Phosphatase Inhibitor Cocktail Set II (Calbiochem). Protein amounts were quantified with Coomassie Protein Assay Reagent (Pierce Biotechnology) with BSA as the standard. […] In FIG. 5D, the membrane was probed sequentially with p44/42 MAPK polyclonal antibody, phospho-specific p44/42 MAPK (Thr202/Tyr204) monoclonal antibody E10, Akt polyclonal antibody, and phospho-specific Akt (Ser473) polyclonal antibody (Cell Signaling Technology). Reacting material was detected using horseradish peroxidase-conjugated secondary antibodies (Jackson ImmunoResearch Laboratories, West Grove, Pa.) together with enhanced chemiluminescence (Amersham Pharmacia) and autoradiography."}, "[2]": {"system": "ERRα1-mediated constitutive activation of ERE-regulated transcription in BT-474 cells", "assay": "Transient transfection dual-luciferase assay of ERRα1-mediated ERE-regulated transcription in BT-474 cells", "type": "cell-based, human", "protocol": "as §1"}, "[3]": {"system": "phosphorylated MAPK (p-MAPK)", "assay": "Immunoblot analysis of phosphorylated versus total MAPK in BT-474 cells", "type": "cell-based, human", "conditions": "48 h, 20 μg/ml trastuzumab, 1 μM gefitinib, 20 μM U0126 or 20 μM LY294002", "protocol": "as §1, §2"}, "ERRα": {"system": "ERRα", "assay": "Immunoblot analysis of ERRα expression in ERRα-transfected BT-474 cells", "type": "cell-based, human", "conditions": "BT-474 cells transfected with ERRα, 48 h; 20 μg/ml trastuzumab, 1 μM gefitinib, 20 μM U0126 or 20 μM LY294002", "protocol": "as §1, §2"}, "[4]": {"system": "ER-stimulated ERE-regulated transcription in MCF-7 cells", "assay": "Transient transfection dual-luciferase assay of ERE-regulated transcription in MCF-7 cells", "type": "cell-based, human", "conditions": "100 pM E2, 48 h, estrogen-free medium, ER-positive MCF-7 cells", "protocol": "(A) MCF-7 and (B) BT-474 cells were co-transfected in parallel with the ERE(5×)-regulated and TATA dual-luciferase reporter gene sets along with ERRα1, ERRα1L413A/L418A, GRIP1 (glucocorticoid receptor interacting protein 1, SRC2) or empty parental expression plasmids as indicated. Transfected cells were incubated for 48 h in estrogen-free medium supplemented with ethanol, the solvent for the ligands, 100 pM E2, or 100 pM E2 plus 100 nM fulvestrant (ICI 182,780, faslodex) prior to being harvested for dual-luciferase assays. The results shown here are means±standard deviations from data obtained in one representative experiment performed in triplicate.\nPlasmids pERE(5x)-ffLuc and pTATA-ffLuc, encoding firefly luciferase, and plasmid pTATA-srLuc, encoding renilla luciferase, were used as matched dual-luciferase reporter sets to assay ERE-regulated versus basal transcription along with an internal control. They were constructed by insertion via HindIII linkers of the nts −31 to +31 region of the herpes simplex virus thymidine kinase (HSV-TK) promoter into pGL3-Basic and phRG-B (Promega, Madison, Wis.), respectively. Plasmid pERE(5x)-ffLuc, containing five tandem copies of the consensus palindromic ERE, was then constructed by insertion into pTATA-fELuc of the oligodeoxynucleotides 5′-tcgag[…]gag[…]ctc[…] GACCTCTgcg[…]gcg[…]a-3′ (SEQ ID NO:1) and 5′-gatct[…]cgc[…]cgc[…] […]"}, "[5]": {"system": "PHAS-1 (phosphorylated heat and acid-stable protein regulated by insulin)"}, "[6]": {"system": "GST-β-globin 1-123 fusion protein [GST: P08515]", "sequence (P08515 whole entry, looked up, the tested form may be a part)": "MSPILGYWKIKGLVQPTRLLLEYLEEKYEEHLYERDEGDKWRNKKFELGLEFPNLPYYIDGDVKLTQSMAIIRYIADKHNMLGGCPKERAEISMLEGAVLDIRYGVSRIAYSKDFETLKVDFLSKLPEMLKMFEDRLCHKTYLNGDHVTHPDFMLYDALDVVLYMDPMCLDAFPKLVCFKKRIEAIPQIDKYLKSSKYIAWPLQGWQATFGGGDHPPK"}, "[7]": {"biological_target": "T1, GST-ERRα1 1-173 (truncated GST-ERRα1 fusion protein) (UniProt P11474)", "T1 sequence": "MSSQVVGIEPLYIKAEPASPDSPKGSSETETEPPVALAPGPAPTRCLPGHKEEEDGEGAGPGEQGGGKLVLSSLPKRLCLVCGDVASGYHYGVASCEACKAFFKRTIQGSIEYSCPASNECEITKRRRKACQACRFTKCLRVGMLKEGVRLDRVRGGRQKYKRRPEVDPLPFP"}, "[8]": {"biological_target": "T2, GST-ERRα1 1-423 (full-length GST-ERRα1 fusion protein) (UniProt P11474)", "T2 sequence": "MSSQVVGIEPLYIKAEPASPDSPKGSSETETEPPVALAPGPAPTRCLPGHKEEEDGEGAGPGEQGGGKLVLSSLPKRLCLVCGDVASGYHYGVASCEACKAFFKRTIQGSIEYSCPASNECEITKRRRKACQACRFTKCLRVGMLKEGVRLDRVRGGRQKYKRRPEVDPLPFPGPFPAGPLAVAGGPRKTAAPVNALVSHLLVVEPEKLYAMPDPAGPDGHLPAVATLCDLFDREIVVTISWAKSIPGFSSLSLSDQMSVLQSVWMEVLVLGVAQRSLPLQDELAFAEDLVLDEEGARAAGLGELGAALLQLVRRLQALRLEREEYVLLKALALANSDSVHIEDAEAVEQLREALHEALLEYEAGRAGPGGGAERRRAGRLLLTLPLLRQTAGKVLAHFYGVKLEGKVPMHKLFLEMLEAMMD"}, "[9]": {"biological_target": "T3, GST-ERRα1 1-376 (truncated GST-ERRα1 fusion protein) (UniProt P11474)", "T3 sequence": "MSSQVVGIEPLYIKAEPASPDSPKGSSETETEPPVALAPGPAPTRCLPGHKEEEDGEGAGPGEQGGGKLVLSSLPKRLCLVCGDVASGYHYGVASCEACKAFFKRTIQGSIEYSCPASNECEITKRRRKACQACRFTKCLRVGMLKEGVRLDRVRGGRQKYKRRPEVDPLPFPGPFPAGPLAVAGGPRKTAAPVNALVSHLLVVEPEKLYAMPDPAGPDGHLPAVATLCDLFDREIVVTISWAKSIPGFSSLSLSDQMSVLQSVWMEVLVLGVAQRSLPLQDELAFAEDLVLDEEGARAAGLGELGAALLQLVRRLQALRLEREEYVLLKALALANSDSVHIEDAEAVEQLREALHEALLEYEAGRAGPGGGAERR"}, "[10]": {"biological_target": "Human ERRα1 containing a C-terminal 6×His tag, expressed and purified from E. coli, P11474"}}}
{"molecule": "N#CC(=C(/N)Sc1ccccc1N)/C(C#N)=C(\\N)Sc1ccccc1N", "note": "[U0126]", "values": [{"measurement": "phosphorylation of Akt / PI3K/Akt pathway activation (immunoblot)", "setting": "[1]", "value": "without affecting Akt status"}, {"measurement": "reduction in ERRα1's activator activity", "setting": "[2]", "value": "approximately 50%"}, {"measurement": "phosphorylation of MAPK / MEK/MAPK pathway activation (immunoblot)", "setting": "[3]", "value": "inhibition of phosphorylation of MAPK"}, {"measurement": "ERRα expression (immunoblot)", "setting": "ERRα", "value": "still expressed"}]}
{"molecule": "O=c1cc(N2CCOCC2)oc2c(-c3ccccc3)cccc12", "note": "[LY294002, 2-(4-morpholinyl)-8-phenyl-4H-1-benzopyran-4-one]", "values": [{"measurement": "phosphorylation of Akt / PI3K/Akt pathway activation (immunoblot)", "setting": "[1]", "value": "inhibition of phosphorylation of Akt"}, {"measurement": "phosphorylation of MAPK / MEK/MAPK pathway activation (immunoblot)", "setting": "[3]", "value": "without affecting MAPK status"}, {"measurement": "ERRα expression (immunoblot)", "setting": "ERRα", "value": "still expressed"}]}
{"molecule": "C[C@]12CC[C@@H]3c4ccc(O)cc4CC[C@H]3[C@@H]1CC[C@@H]2O", "note": "[E2, 17β-estradiol]", "values": [{"measurement": "induction of ERE-regulated transcription", "setting": "[4]", "value": 19, "unit": "fold"}]}
{"molecule": "rat p42 MAPK2 (ERK2; Calbiochem) phosphorylated in vitro by a constitutively active MEK1 mutant", "values": [{"measurement": "in vitro phosphorylation with [γ32P]-ATP, 12% SDS-PAGE and PhosphorImager", "setting": "[5]", "value": "activated MAPK efficiently phosphorylated PHAS-1, but not GST-β-globin1-123"}, {"measurement": "in vitro phosphorylation with [γ32P]-ATP, 12% SDS-PAGE and PhosphorImager", "setting": "[6]", "value": "activated MAPK efficiently phosphorylated PHAS-1, but not GST-β-globin1-123"}, {"measurement": "in vitro phosphorylation with [γ32P]-ATP, 12% SDS-PAGE and PhosphorImager", "setting": "[7]", "value": "MAPK phosphorylated each of the GST-ERRα1 fusion proteins, with more label being incorporated into GST-ERRα11-423 than into GST-ERRα11-376 and GST-ERRα11-173"}, {"measurement": "in vitro phosphorylation with [γ32P]-ATP, 12% SDS-PAGE and PhosphorImager", "setting": "[8]", "value": "MAPK phosphorylated each of the GST-ERRα1 fusion proteins, with more label being incorporated into GST-ERRα11-423 than into GST-ERRα11-376 and GST-ERRα11-173"}, {"measurement": "in vitro phosphorylation with [γ32P]-ATP, 12% SDS-PAGE and PhosphorImager", "setting": "[9]", "value": "MAPK phosphorylated each of the GST-ERRα1 fusion proteins, with more label being incorporated into GST-ERRα11-423 than into GST-ERRα11-376 and GST-ERRα11-173"}]}
{"molecule": "B1", "values": [{"measurement": "in vitro phosphorylation with [γ-32P]-ATP, SDS-(4-12%) PAGE and autoradiography", "setting": "[10]", "value": "Each of the kinases tested was capable of phosphorylating ERRα in vitro"}]}
{"molecule": "B2", "values": [{"measurement": "in vitro phosphorylation with [γ-32P]-ATP, SDS-(4-12%) PAGE and autoradiography", "setting": "[10]", "value": "Each of the kinases tested was capable of phosphorylating ERRα in vitro"}]}
{"molecule": "B3", "values": [{"measurement": "in vitro phosphorylation with [γ-32P]-ATP, SDS-(4-12%) PAGE and autoradiography", "setting": "[10]", "value": "Each of the kinases tested was capable of phosphorylating ERRα in vitro"}]}
